Reference: patent US20090062267A1, “L-ALANINE DERIVATIVES AS a5beta1 ANTAGONISTS” (ASTRAZENECA AB, priority 2007, published 2009)

Molecular target: recombinant human α5β1 (Homo sapiens, UniProt P05556+P08648)
Experiment: In Vitro Binding Assay (a): inhibition of binding of α5β1 integrin to a fragment of human fibronectin (Fn9-10), Origen electrochemiluminescence
Settings: geometric mean where tested more than once
Text: The assay determined the ability of compounds to inhibit binding of α5β1 integrin to a cognate ligand, a fragment of human fibronectin. The assay used Origen technology (IGEN International) to measure the compound activity. Briefly, α5β1 integrin was coated onto epoxy-paramagnetic beads (Dynal Biotech UK, Bromborough, Wirral, CH62 3QL, UK, Catalogue No 140.11) and biotinylated-fibronectin ligand was coupled to strepatividin labeled Tag-NHS-Ester (BioVeris Corporation, Witney, Oxfordshire, OX28 4GE, UK, Catalogue No 110034). The ruthenium-labeled tag emits an electrochemiluminescence signal upon stimulation which is detected by the Origen reader. Thus, interaction of integrin and ligand causes association of bead and tag, and the resulting electrochemiluminescence signal reflects the level of integrin interaction with fibronectin.
20 μg of recombinant human α5β1 was coated onto 4×10(7) epoxy-paramagnetic beads according to manufacturers instructions at 4° C. for 24 hours. Integrin coating and corresponding activity was subsequently measured for each batch but typically, 25 ng of coated protein was used per assay well.
A DNA fragment encoding the domains 9-10 (amino-acids 1325-1509) of human fibronectin (Swiss-Prot Accession No. P02751) was isolated from cDNA libraries using standard molecular biology and PCR cloning techniques. The cDNA fragment was sub-cloned into a pT73.3 expression vector containing a GST-epitope tag (developed at AstraZeneca; Bagnall et al., Protein Expression and Purification, 2003, 27: 1-11). Following expression in E. coli, the expressed protein, termed Fn9-10, was purified using the GST-tag using standard purification techniques. The recombinant Fn9-10 was subsequently biotinylated using a EZ-link Sulfo-NHS-LC-Biotinylation kit (Perbio Science UK Ltd., Cramlington, Northumberland, NE23 1WA, UK, Catalogue No. 21335) and made to give a final concentration of approximately 1 mg/ml. Tag-NHS-Ester was labeled with streptavidin by incubation at room temperature following manufacturers instructions and buffer-exchanged into PBS to give a concentration of 0.5 mg/ml. Immediately prior to the assay, biotinylated-Fn9-10 and Streptavidin-labeled Tag were diluted in Assay Buffer to give a final concentrations of 0.6 ug/ml and 1.5 ug/ml respectively. The Fn9-10 and Tag solutions were then mixed together in equal volumes and incubated on ice for at least 30 minutes prior to the assay.
Aliquots (20 μl) of each compound dilution were placed into each well of a 384-well round bottomed polypropylene plate (Matrix Technologies, Wilmslow, Cheshire, SK9 3LP, Catalogue No. 4340 384).
For the assay, 25 ng (20 ul) of a5b1-bead suspension and 40 μl of the Fn9-10/Tag pre-incubated solution were added to each well containing 20 μl of compound or control solution. Assay plates were then incubated at room temperature for a minimum of 6 hours before being analysed on an Origen plate reader. The minimum value was subtracted from all values, and the signal was plotted against compound concentration to generate IC50 data.
The data in the above table was generated in an assay substantially as described above in relation to Binding Assay (a). Some of the compounds shown in the table were tested more than once in the assay. For those compounds the IC50 value shown is the geometric mean of the measured IC50 values.

Sequence of recombinant human α5β1 (P08648 42-1049): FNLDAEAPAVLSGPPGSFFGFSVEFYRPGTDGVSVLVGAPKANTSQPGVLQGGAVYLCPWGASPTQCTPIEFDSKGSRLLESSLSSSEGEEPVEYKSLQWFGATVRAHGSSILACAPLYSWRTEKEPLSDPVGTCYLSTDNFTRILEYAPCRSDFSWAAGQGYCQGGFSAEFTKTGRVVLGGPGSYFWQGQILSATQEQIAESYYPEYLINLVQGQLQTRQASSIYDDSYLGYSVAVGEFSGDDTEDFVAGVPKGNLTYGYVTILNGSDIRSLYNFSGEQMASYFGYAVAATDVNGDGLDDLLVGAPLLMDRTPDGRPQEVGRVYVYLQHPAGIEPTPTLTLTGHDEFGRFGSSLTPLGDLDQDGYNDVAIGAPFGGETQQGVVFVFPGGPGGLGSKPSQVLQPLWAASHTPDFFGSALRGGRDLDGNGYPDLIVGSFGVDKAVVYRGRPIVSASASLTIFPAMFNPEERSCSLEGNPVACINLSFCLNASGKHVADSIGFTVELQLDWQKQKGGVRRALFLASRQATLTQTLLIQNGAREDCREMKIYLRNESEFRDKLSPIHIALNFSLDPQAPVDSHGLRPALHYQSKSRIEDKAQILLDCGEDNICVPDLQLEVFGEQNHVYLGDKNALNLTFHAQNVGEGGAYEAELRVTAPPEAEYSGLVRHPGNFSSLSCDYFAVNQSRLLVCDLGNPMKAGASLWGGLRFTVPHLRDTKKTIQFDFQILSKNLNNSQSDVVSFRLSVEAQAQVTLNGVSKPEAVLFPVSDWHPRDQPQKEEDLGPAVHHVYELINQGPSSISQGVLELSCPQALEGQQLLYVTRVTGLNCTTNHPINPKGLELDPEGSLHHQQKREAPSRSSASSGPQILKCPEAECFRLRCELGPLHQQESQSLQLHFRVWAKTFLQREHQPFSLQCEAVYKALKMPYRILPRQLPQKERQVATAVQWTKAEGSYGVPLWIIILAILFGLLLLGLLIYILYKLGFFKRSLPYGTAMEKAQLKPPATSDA
Sequence of recombinant human α5β1 (P05556 21-798): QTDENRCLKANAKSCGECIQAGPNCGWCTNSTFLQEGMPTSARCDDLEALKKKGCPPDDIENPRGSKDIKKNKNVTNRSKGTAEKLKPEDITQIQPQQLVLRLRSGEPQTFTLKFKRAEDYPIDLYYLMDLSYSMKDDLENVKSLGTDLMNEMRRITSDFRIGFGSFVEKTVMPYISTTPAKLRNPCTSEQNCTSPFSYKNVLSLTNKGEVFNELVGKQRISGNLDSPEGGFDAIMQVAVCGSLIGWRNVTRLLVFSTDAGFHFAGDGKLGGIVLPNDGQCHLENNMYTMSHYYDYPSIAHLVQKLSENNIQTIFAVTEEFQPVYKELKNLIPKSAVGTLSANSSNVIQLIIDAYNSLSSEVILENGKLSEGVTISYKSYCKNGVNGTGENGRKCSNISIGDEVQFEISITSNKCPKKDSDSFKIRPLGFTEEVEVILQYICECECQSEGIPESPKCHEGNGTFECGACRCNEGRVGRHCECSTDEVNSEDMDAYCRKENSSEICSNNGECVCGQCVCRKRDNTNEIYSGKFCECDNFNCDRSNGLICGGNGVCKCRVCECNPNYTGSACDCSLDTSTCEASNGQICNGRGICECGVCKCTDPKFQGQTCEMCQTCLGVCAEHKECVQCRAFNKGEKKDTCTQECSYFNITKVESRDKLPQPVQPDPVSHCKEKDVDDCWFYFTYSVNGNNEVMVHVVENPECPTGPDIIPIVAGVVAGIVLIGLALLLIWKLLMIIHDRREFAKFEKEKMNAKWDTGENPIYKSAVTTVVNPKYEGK

Row | IC50 [nM] | SMILES
1 | 12 | CNc1cccc(CCOc2ccc(C[C@H](NC(=O)c3sccc3Cl)C(=O)O)cc2)n1 [Example 1.1, N-[(3-chloro-2-thienyl)carbonyl]-O-{2-[6-(methylamino)pyridin-2-yl]ethyl}-L-tyrosine]
2 | 19 | CNc1cccc(CCOc2ccc(C[C@H](NC(=O)c3ccc(C)nc3Cl)C(=O)O)cc2)n1 [Example 1.2, N-[(2-chloro-6-methylpyridin-3-yl)carbonyl]-O-{2-[6-(methylamino)pyridin-2-yl]ethyl}-L-tyrosine]
3 | 229 | CNc1cccc(CCOc2ccc(C[C@H](NC(=O)c3ccc(C)s3)C(=O)O)cc2)n1 [Example 1.3, O-{2-[6-(methylamino)pyridin-2-yl]ethyl}-N-[(5-methyl-2-thienyl)carbonyl]-L-tyrosine]
4 | 55 | CNc1cccc(CCOc2ccc(C[C@H](NC(=O)c3cccn3C)C(=O)O)cc2)n1 [Example 1.4, O-{2-[6-(methylamino)pyridin-2-yl]ethyl}-N-[(1-methyl-1H-pyrrol-2-yl)carbonyl]-L-tyrosine]
5 | 41 | CNc1cccc(CCOc2ccc(C[C@H](NC(=O)c3sc(C)nc3C)C(=O)O)cc2)n1 [Example 1.5, N-[(2,4-dimethyl-1,3-thiazol-5-yl)carbonyl]-O-{2-[6-(methylamino)pyridin-2-yl]ethyl}-L-tyrosine]
6 | 151 | CNc1cccc(CCOc2ccc(C[C@H](NC(=O)c3occc3C)C(=O)O)cc2)n1 [Example 1.6, O-{2-[6-(methylamino)pyridin-2-yl]ethyl}-N-(3-methyl-2-furoyl)-L-tyrosine]
7 | 73 | CCn1nc(C)cc1C(=O)N[C@@H](Cc1ccc(OCCc2cccc(NC)n2)cc1)C(=O)O [Example 1.7, N-[(1-ethyl-3-methyl-1H-pyrazol-5-yl)carbonyl]-O-{2-[6-(methylamino)pyridin-2-yl]ethyl}-L-tyrosine]
8 | 19 | CNc1cccc(CCOc2ccc(C[C@H](NC(=O)c3sccc3C)C(=O)O)cc2)n1 [Example 1.8, O-{2-[6-(methylamino)pyridin-2-yl]ethyl}-N-[(3-methyl-2-thienyl)carbonyl]-L-tyrosine]
9 | 23 | CNc1cccc(CCOc2ccc(C[C@H](NC(=O)c3cnccc3C)C(=O)O)cc2)n1 [Example 1.10, O-{2-[6-(methylamino)pyridin-2-yl]ethyl}-N-[(4-methylpyridin-3-yl)carbonyl]-L-tyrosine]
10 | 15 | CNc1cccc(CCOc2ccc(C[C@H](NC(=O)c3cc(Cl)sc3Cl)C(=O)O)cc2)n1 [Example 1.11, N-[(2,5-dichloro-3-thienyl)carbonyl]-O-{2-[6-(methylamino)pyridin-2-yl]ethyl}-L-tyrosine]
11 | 21 | CNc1cccc(CCOc2ccc(C[C@H](NC(=O)c3ccoc3C)C(=O)O)cc2)n1 [Example 1.12, O-{2-[6-(methylamino)pyridin-2-yl]ethyl}-N-(2-methyl-3-furoyl)-L-tyrosine]
12 | 17 | CNc1cccc(CCOc2ccc(C[C@H](NC(=O)c3c(C)n[nH]c3C)C(=O)O)cc2)n1 [Example 1.13, N-[(3,5-dimethyl-1H-pyrazol-4-yl)carbonyl]-O-{2-[6-(methylamino)pyridin-2-yl]ethyl}-L-tyrosine]
13 | 13 | CNc1cccc(CCOc2ccc(C[C@H](NC(=O)c3c(C)nn(C)c3C)C(=O)O)cc2)n1 [Example 1.14, O-{2-[6-(methylamino)pyridin-2-yl]ethyl}-N-[(1,3,5-trimethyl-1H-pyrazol-4-yl)carbonyl]-L-tyrosine]
14 | 129 | CNc1cccc(CCOc2ccc(C[C@H](NC(=O)c3c[nH]nc3C)C(=O)O)cc2)n1 [Example 1.15, O-{2-[6-(methylamino)pyridin-2-yl]ethyl}-N-[(3-methyl-1H-pyrazol-4-yl)carbonyl]-L-tyrosine]
15 | 24 | CNc1cccc(CCOc2ccc(C[C@H](NC(=O)c3scnc3C)C(=O)O)cc2)n1 [Example 1.16, O-{2-[6-(methylamino)pyridin-2-yl]ethyl}-N-[(4-methyl-1,3-thiazol-5-yl)carbonyl]-L-tyrosine]
16 | 89 | CNc1cccc(CCOc2ccc(C[C@H](NC(=O)c3scc(C)c3Cl)C(=O)O)cc2)n1 [Example 1.17, N-[(3-chloro-4-methyl-2-thienyl)carbonyl]-O-{2-[6-(methylamino)pyridin-2-yl]ethyl}-L-tyrosine]
17 | 250 | CNc1cccc(CCOc2ccc(C[C@H](NC(=O)c3ocnc3C)C(=O)O)cc2)n1 [Example 1.18, O-{2-[6-(methylamino)pyridin-2-yl]ethyl}-N-[(4-methyl-1,3-oxazol-5-yl)carbonyl]-L-tyrosine]
18 | 1 | CNc1cccc(CCOc2ccc(C[C@H](NC(=O)c3c(Cl)cncc3Cl)C(=O)O)cc2)n1 [Example 1.19, N-(3,5-dichloroisonicotinoyl)-O-{2-[6-(methylamino)pyridin-2-yl]ethyl}-L-tyrosine]
19 | 349 | CNc1cccc(CCOc2ccc(C[C@H](NC(=O)c3nc(C)oc3C)C(=O)O)cc2)n1 [Example 1.20, N-[(2,5-dimethyl-1,3-oxazol-4-yl)carbonyl]-O-{2-[6-(methylamino)pyridin-2-yl]ethyl}-L-tyrosine]
20 | 10 | CNc1cccc(CCOc2ccc(C[C@H](NC(=O)c3ccncc3C)C(=O)O)cc2)n1 [Example 1.21, O-{2-[6-(methylamino)pyridin-2-yl]ethyl}-N-(3-methylisonicotinoyl)-L-tyrosine]
21 | 34 | CNc1cccc(CCOc2ccc(C[C@H](NC(=O)c3nc(Cl)ccc3Cl)C(=O)O)cc2)n1 [Example 1.22, N-[(3,6-dichloropyridin-2-yl)carbonyl]-O-{2-[6-(methylamino)pyridin-2-yl]ethyl}-L-tyrosine]
22 | 24 | CNc1cccc(CCOc2ccc(C[C@H](NC(=O)c3ncccc3Cl)C(=O)O)cc2)n1 [Example 1.23, N-[(3-chloropyridin-2-yl)carbonyl]-O-{2-[6-(methylamino)pyridin-2-yl]ethyl}-L-tyrosine]
23 | 35 | CNc1cccc(CCOc2ccc(C[C@H](NC(=O)c3ncc(Cl)cc3Cl)C(=O)O)cc2)n1 [Example 1.24, N-[(3,5-dichloropyridin-2-yl)carbonyl]-O-{2-[6-(methylamino)pyridin-2-yl]ethyl}-L-tyrosine]
24 | 36 | CNc1cccc(CCOc2ccc(C[C@H](NC(=O)c3ncc(C(F)(F)F)cc3Cl)C(=O)O)cc2)n1 [Example 1.25, N-{[3-chloro-5-(trifluoromethyl)pyridin-2-yl]carbonyl}-O-{2-[6-(methylamino)pyridin-2-yl]ethyl}-L-tyrosine]
25 | 111 | CNc1cccc(CCOc2ccc(C[C@H](NC(=O)c3c(Cl)c4ccccc4n3C)C(=O)O)cc2)n1 [Example 1.26, N-[(3-chloro-1-methyl-1H-indol-2-yl)carbonyl]-O-{2-[6-(methylamino)pyridin-2-yl]ethyl}-L-tyrosine]
26 | 50 | CNc1cccc(CCOc2ccc(C[C@H](NC(=O)c3cc(C)cs3)C(=O)O)cc2)n1 [Example 1.27, O-{2-[6-(methylamino)pyridin-2-yl]ethyl}-N-[(4-methyl-2-thienyl)carbonyl]-L-tyrosine]
27 | 75 | CCc1cc(C(=O)N[C@@H](Cc2ccc(OCCc3cccc(NC)n3)cc2)C(=O)O)cs1 [Example 1.28, N-[(5-ethyl-3-thienyl)carbonyl]-O-{2-[6-(methylamino)pyridin-2-yl]ethyl}-L-tyrosine]
28 | 71 | CCCc1cc(C(=O)N[C@@H](Cc2ccc(OCCc3cccc(NC)n3)cc2)C(=O)O)cs1 [Example 1.29, O-{2-[6-(methylamino)pyridin-2-yl]ethyl}-N-[(5-propyl-3-thienyl)carbonyl]-L-tyrosine]
29 | 132 | CNc1cccc(CCOc2ccc(C[C@H](NC(=O)c3csc(C(C)C)c3)C(=O)O)cc2)n1 [Example 1.30, N-[(5-isopropyl-3-thienyl)carbonyl]-O-{2-[6-(methylamino)pyridin-2-yl]ethyl}-L-tyrosine]
30 | 7 | CNc1cccc(CCOc2ccc(C[C@H](NC(=O)c3ccncc3Cl)C(=O)O)cc2)n1 [Example 2.1, N-(3-chloroisonicotinoyl)-O-{2-[6-(methylamino)pyridin-2-yl]ethyl}-L-tyrosine]
